Data taken from US11292788B2, “IL-17 and IFN-gamma inhibition for the treatment of autoimmune diseases and chronic inflammation” (Immunic AG, priority 2017, dated 2022).
Values after ≈ are worked out from the molar mass of the structure shown.

How the values were obtained:
[1] = Aqueous solubility in 50 mM phosphate buffer (HPLC/DAD); format: physicochemical; conditions: 50 mM phosphate buffer, 23 °C, pH 7.4, aqueous buffer, kinetic from dmso stock, aqueous solubility class; read-out: aq. solub.
Method in brief: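 Compound at 200 μM (1% DMSO final) shaken 24 h at 23° C in aqueous phosphate buffers at pH 4.0, 6.0, 7.4 and 9.0. Undissolved material removed by centrifugation (30 min, 18000 g). Supernatant concentration quantified by HPLC-UV against a 0.1–200 μg/ml standard curve in MeCN.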

[2] = Microsomal stability: incubation with human liver microsomes, residual parent compound by HPLC-MS/MS; format: in vitro ADME; conditions: pH 7.4; human liver microsomes, 1 μM compound, 0.5 mg/ml HLM, 37° C., up to 60 min; read-out: t1/2 hLM
Method in brief: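 Compound at 1 μM final with 0.5 mg/ml pooled human liver microsomes and NADPH regenerating system, 0.1 M potassium phosphate pH 7.4, 0.4% DMSO, 37° C, sampled up to 60 min. Residual parent measured by HPLC-MS/MS; half-life and clearance from slope of remaining % of T0.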

[3] = system: INF-γ; test: Cytokine assay: INF-γ production by human PBMC stimulated with PHA; format: cell-based; conditions: Homo sapiens, PBMC, IC50 class, read-out: IFN-gamma Inhib.
Method in brief: (§1)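 Healthy-donor PBMC, isolated on Histopaque-1077, were seeded at 1×10^5 cells/well in RPMI1640 with 10% dialyzed heat-inactivated FCS, activated with 2 μg/ml PHA and incubated with compound for 48 hours. Supernatant cytokine was measured by Luminex BioPlex or ELISA. IC50 came from semilogarithmic titration; screening used 10, 1, 0.1 and 0.01 μM.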

[4] = system: IL-17F; test: Cytokine assay: IL-17F production by human PBMC stimulated with PHA; format: cell-based; conditions: Homo sapiens, PBMC, IC50 class, read-out: IL-17F Inhib.
Method in brief: as §1

[5] = system: IL-17A; test: Cytokine assay: IL-17A production by human PBMC stimulated with PHA; format: cell-based; conditions: Homo sapiens, PBMC, IC50 class, read-out: IL-17A Inhib.
Method in brief: as §1

Row | solubility at 24 h [1] [µM] | half-life at 1 μM [2] [h] | IC50 [3] [nM] | IC50 [4] [nM] | IC50 [5] [nM] | SMILES
1 | > 10 | > 1.67 | < 50 | < 50 | < 50 | CCOC(=O)c1c(-c2cccc(OC)c2Cl)noc1-c1cnn([C@H]2C[C@@](C)(O)C2)c1C(F)(F)F [Example 131, ethyl 3-(2-chloro-3-methoxyphenyl)-5-{1-[3-hydroxy-3-methylcyclobutyl]-5-(trifluoromethyl)-1H-pyrazol-4-yl}-1,2-oxazole-4-carboxylate]
2 | 3 to 9.99 (≈ 1.51 to 5.01 µg/mL) | 0.667 to 1.67 | < 50 | < 50 | < 50 | CCOC(=O)c1c(-c2cccc(OC)c2Cl)noc1-c1cnn(CCC(C)(C)O)c1C(F)(F)F [Example 132, ethyl 3-(2-chloro-3-methoxyphenyl)-5-[1-(3-hydroxy-3-methylbutyl)-5-(trifluoromethyl)-1H-pyrazol-4-yl]-1,2-oxazole-4-carboxylate]
3 | > 10 | > 1.67 | 50 to 500 | 500 to 5000 | 500 to 5000 | CCN(CC)CCCOc1cccc(-c2noc(-c3cnn(CCC(C)(C)O)c3C)c2-c2ncccn2)c1Cl [Example 147, 4-[4-(3-{2-chloro-3-[3-(diethylamino)propoxy]phenyl}-4-(pyrimidin-2-yl)-1,2-oxazol-5-yl)-5-methyl-1H-pyrazol-1-yl]-2-methylbutan-2-ol]
4 | > 10 | 0.167 to 0.666 | < 50 | < 50 | < 50 | C[C@@H](O)Cn1ncc(-c2onc(-c3cccc(C(=O)N4CCCC4)c3Cl)c2-c2ccncn2)c1C(F)(F)F [Example 160, (R)-(2-chloro-3-(5-(1-(2-hydroxypropyl)-5-(trifluoromethyl)-1H-pyrazol-4-yl)-4-(pyrimidin-4-yl)isoxazol-3-yl)phenyl)(pyrrolidin-1-yl)methanone]
